Laboratory results published in patent US12479827B2, “Heteroaromatic carboxamide derivatives as plasma kallikrein inhibitors” (Boehringer Ingelheim International GmbH, priority 2020, dated 2025).

Experiments:
Type in all cases: biochemical
Human PKK = target: T1, Human PKK (Homo sapiens, UniProt P03952); assay: Inhibition of PKK using an endpoint assay (human PKK); settings: fluorogenic substrate H-Pro-Phe-Arg-AMC, 1 h room temperature, method names human or rat PKK, table does not say which
T1 construct: purchased Enzyme Research Laboratories
How it was run: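 Human PKK inhibition measured in 100 mM Tris, 150 mM NaCl, pH 7.8, 0.1% BSA, 0.05% Tween20, 1% DMSO. Endpoint format: reaction stopped with PPACK II at 1 μM final, fluorescence read at 355 nm excitation/460 nm emission.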

[1] = target: T2, PKK in kaolin activated human platelet poor plasma (Homo sapiens, UniProt P03952); assay: Inhibition of PKK in kaolin activated human PPP; settings: 25-750 μg/mL kaolin, global fit, text b200 calls the values IC90;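 further: readout is the rate of fluorogenic substrate cleavage in rfu per min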
T2 construct: Platelet poor plasma (PPP) obtained from human wholeblood; from tissue
Procedure: Platelet poor plasma (PPP) obtained from human wholeblood, anticoagulated with Na-Citrate, is incubated with various concentrations of the test compound together with either 25, 75, 250, or 750 μg/mL kaolin in assay buffer for 20 min at 37° C. such that for each kaolin dose used a concentration response is obtained for the test compound.

human TK1 = target: T3, human TK1 (Homo sapiens, UniProt P06870); assay: Inhibition of TK1 (Ki); settings: activated human TK1, substrate H-Pro-Phe-Arg-AMC, 24° C.
T3 construct: purchased R&D Systems
Procedure: The ability of compounds of formula (I) to inhibit plasma kallikrein (PKK), Factor XIIa (FXIIa), Factor XIa (FXIa), Factor Xa (FXa), Factor IIa (alpha-thrombin; FIIa), plasmin, trypsin, tissue kallikrein 1 (TK1), Factor VIIa (FVIIa), or FVIIa complexed with Tissue Factor, phospholipids and CaCl2 (FVIIa/TF/PL/CaCl2) is determined using the following biochemical assays in assay buffer (100 mM Tris, 150 mM NaCL, adjusted to a pH of 7.8 with HCl, and containing 0.1% (w/v) BSA and 0.05% (v/v) Tween20) in the presence of 1% (v/v) DMSO:
Prior to the assay, human TK1 (R&D Systems) is activated by incubation with human trypsin (Calbiochem) in a 1:10,000 ratio for 15 min at 37° C. For assaying TK1 inhibitory activity, activated TK1 (31.25 nM or 1 U/mL) is incubated at 24° C. with 0.1 mM fluorogenic substrate H-Pro-Phe-Arg-AMC (11295 from Bachem) and various concentrations of the test compound in assay buffer. Measurements are performed in a kinetic interval every 2nd minute for 16 min using a Spectramax M5 (Molecular Devices) with the following settings of the wavelength excitation of 350 nm and wavelength emission of 450 nm.
The pIC50 values are then fitted using a four-parametric fitting procedure using GraphPad Prism (version 6; GraphPad Software, Inc.). Respective Ki values are obtained by correction of the IC50 values for the respective KM value of the used substrate (see Table A for the obtained KM values of the used substrates) using the following formula:
[formula] Where the IC50 is in molar and the KM value in mM.

T1 sequence (P03952 20-390 limits assumed): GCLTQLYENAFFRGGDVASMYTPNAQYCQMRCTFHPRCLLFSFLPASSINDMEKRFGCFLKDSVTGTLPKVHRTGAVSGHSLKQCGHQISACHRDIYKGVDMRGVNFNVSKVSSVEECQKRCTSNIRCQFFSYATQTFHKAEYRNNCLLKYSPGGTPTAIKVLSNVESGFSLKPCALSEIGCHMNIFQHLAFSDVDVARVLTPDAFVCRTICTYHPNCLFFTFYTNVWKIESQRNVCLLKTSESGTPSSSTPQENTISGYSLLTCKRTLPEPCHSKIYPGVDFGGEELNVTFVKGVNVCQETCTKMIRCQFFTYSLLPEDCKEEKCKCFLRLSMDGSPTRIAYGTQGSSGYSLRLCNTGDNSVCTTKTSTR
T1 sequence (P03952 391-638 limits assumed): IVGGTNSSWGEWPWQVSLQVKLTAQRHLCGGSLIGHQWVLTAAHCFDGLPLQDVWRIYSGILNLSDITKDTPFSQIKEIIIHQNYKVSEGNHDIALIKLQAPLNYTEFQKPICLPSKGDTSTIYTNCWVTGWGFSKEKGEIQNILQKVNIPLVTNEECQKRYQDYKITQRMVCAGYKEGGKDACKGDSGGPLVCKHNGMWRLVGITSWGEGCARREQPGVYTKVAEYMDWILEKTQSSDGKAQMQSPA
T2 sequence (P03952 391-638 limits assumed): as above
T2 sequence (P03952 20-390 limits assumed): as the sequence (P03952 20-390 limits assumed) above
T3 sequence (P06870 25-262): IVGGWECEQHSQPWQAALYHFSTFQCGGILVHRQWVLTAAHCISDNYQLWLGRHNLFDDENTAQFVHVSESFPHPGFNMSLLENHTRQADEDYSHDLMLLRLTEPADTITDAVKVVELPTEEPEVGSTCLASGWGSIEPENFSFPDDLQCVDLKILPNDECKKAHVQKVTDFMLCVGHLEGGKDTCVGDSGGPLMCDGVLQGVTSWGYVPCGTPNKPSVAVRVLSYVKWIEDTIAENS

Row | IC50 (Human PKK) [nM] | IC50 [1] [nM] | Ki (human TK1) [nM] | Compound
1 | 5 | 844 | > 10000 | Cc1nc(N2CC3C(C2)C3(F)F)ncc1Cn1cc(C(=O)N[C@@H]2CCc3c2ncn3C)nn1 (stereo partly drawn) [Example 178, 1-[(2-{6,6-Difluoro-3-azabicyclo[3.1.0]hexan-3-yl}-4-methylpyrimidin-5-yl)methyl]-N-[(4R)-1-methyl-1H,4H,5H,6H-cyclopenta[d]imidazol-4-yl]-1H-1,2,3-triazole-4-carboxamide]
2 | 1.5 | 1080 | > 10000 | Cn1cnc2c1CC[C@H]2NC(=O)c1cnn(Cc2ccc(N3CC4CC4C3)c(C#N)c2)c1 (stereo partly drawn) [Example 190, 1-[(4-{3-Azabicyclo[3.1.0]hexan-3-yl}-3-cyanophenyl)methyl]-N-[(4R)-1-methyl-1H,4H,5H,6H-cyclopenta[d]imidazol-4-yl]-1H-pyrazole-4-carboxamide]
3 | 3.5 | 646 | > 10000 | Cc1nc(N2CC3C(C2)C3(F)F)ncc1Cn1cc(C(=O)N[C@@H]2CCc3c2ncn3C)cn1 (stereo partly drawn) [Example 218, 1-[(2-{6,6-Difluoro-3-azabicyclo[3.1.0]hexan-3-yl}-4-methylpyrimidin-5-yl)methyl]-N-[(4R)-1-methyl-1H,4H,5H,6H-cyclopenta[d]imidazol-4-yl]-1H-pyrazole-4-carboxamide]
4 | 1.2 | 1680 | > 10000 | Cn1cnc2c1CC[C@H]2NC(=O)c1cnn(Cc2ccc(N3CC4CC4C3)nc2Cl)c1 (stereo partly drawn) [Example 127, 1-[(6-{3-Azabicyclo[3.1.0]hexan-3-yl}-2-chloropyridin-3-yl)methyl]-N-[(4R)-1-methyl-1H,4H,5H,6H-cyclopenta[d]imidazol-4-yl]-1H-pyrazole-4-carboxamide]
5 | 1.2 | 597 | > 10000 | Cn1cnc2c1CC[C@H]2NC(=O)c1cnn(Cc2ccc(N3CC4CC4C3)nc2CO)c1 (stereo partly drawn) [Example 86, 1-[(6-{3-Azabicyclo[3.1.0]hexan-3-yl}-2-(hydroxymethyl)-pyridin-3-yl)methyl]-N-[(4R)-1-methyl-1H,4H,5H,6H-cyclopenta[d]imidazol-4-yl]-1H-pyrazole-4-carboxamide]
6 | 0.8 | 469 | > 10000 | Cc1nc(N2CC3(CC3)C2)ccc1Cn1cnc(C(=O)N[C@@H]2CCc3c2ncn3C)c1 [Example 170, 1-[(6-{5-Azaspiro[2.3]hexan-5-yl}-2-methylpyridin-3-yl)methyl]-N-[(4R)-1-methyl-1H,4H,5H,6H-cyclopenta[d]imidazol-4-yl]-1H-imidazole-4-carboxamide]
7 | 1.2 | 1460 | 1060 | Cc1nc(N2CC3CC3C2)ccc1Cn1cc(C(=O)N[C@@H]2CCc3c2ncn3C)c(C(F)(F)F)n1 (stereo partly drawn) [Example 119, 1-[(6-{3-Azabicyclo[3.1.0]hexan-3-yl}-2-methylpyridin-3-yl)methyl]-N-[(4R)-1-methyl-1H,4H,5H,6H-cyclopenta[d]imidazol-4-yl]-3-(trifluoromethyl)-1H-pyrazole-4-carboxamide]
8 | 2.6 | 268 | > 10000 | Cc1nc(N2CC3CC3C2)ncc1Cn1cnc(C(=O)N[C@@H]2CCc3c2ncn3C)c1 (stereo partly drawn) [Example 171, 1-[(2-{3-Azabicyclo[3.1.0]hexan-3-yl}-4-methylpyrimidin-5-yl)methyl]-N-[(4R)-1-methyl-1H,4H,5H,6H-cyclopenta[d]imidazol-4-yl]-1H-imidazole-4-carboxamide]
9 | 1.1 | 2740 | > 10000 | Cc1nc(N2CC3CC3C2)ccc1Cn1cc(C(=O)N[C@@H]2CCc3c2ncn3C)c(C(C)(C)O)n1 (stereo partly drawn) [Example 125, 1-[(6-{3-Azabicyclo[3.1.0]hexan-3-yl}-2-methylpyridin-3-yl)methyl]-3-(2-hydroxypropan-2-yl)-N-[(4R)-1-methyl-1H,4H,5H,6H-cyclopenta-[d]imidazol-4-yl]-1H-pyrazole-4-carboxamide]
10 | 5.1 | 1390 | > 10000 | Cc1nc(N2CC3CC3C2)c(C#N)cc1Cn1cc(C(=O)N[C@@H]2CCc3c2ncn3C)cn1 (stereo partly drawn) [Example 128, 1-[(6-{3-Azabicyclo[3.1.0]hexan-3-yl}-5-cyano-2-methylpyridin-3-yl)methyl]-N-[(4R)-1-methyl-1H,4H,5H,6H-cyclopenta[d]imidazol-4-yl]-1H-pyrazole-4-carboxamide]
11 | 0.3 | 157 | > 10000 | Cc1c(Cn2cnc(C(=O)N[C@@H]3CCc4c3ncn4C)c2)cnc(N2CC3CC3C2)c1C#N (stereo partly drawn) [Example 118, 1-[(6-{3-Azabicyclo[3.1.0]hexan-3-yl}-5-cyano-4-methylpyridin-3-yl)methyl]-N-[(4R)-1-methyl-1H,4H,5H,6H-cyclopenta[d]imidazol-4-yl]-1H-imidazole-4-carboxamide]
12 | 2.9 | 822 | > 10000 | Cc1nc(N2CC3C(C2)C3(F)F)ncc1Cn1cc(C(=O)N[C@@H]2CCc3c2ncn3C)c2cncnc21 (stereo partly drawn) [Example 175, 7-[(2-{6,6-Difluoro-3-azabicyclo[3.1.0]hexan-3-yl}-4-methylpyrimidin-5-yl)methyl]-N-[(4R)-1-methyl-1H,4H,5H,6H-cyclopenta[d]imidazol-4-yl]-7H-pyrrolo[2,3-d]pyrimidine-5-carboxamide]
13 | 0.4 | 278 | 871 | Cc1c(Cn2cc(C(=O)N[C@@H]3CCc4c3ncn4C)cn2)cnc(N2CC3CC3C2)c1C#N (stereo partly drawn) [Example 116, 1-[(6-{3-Azabicyclo[3.1.0]hexan-3-yl}-5-cyano-4-methylpyridin-3-yl)methyl]-N-[(4R)-1-methyl-1H,4H,5H,6H-cyclopenta[d]imidazol-4-yl]-1H-pyrazole-4-carboxamide]
14 | 1.7 | 1030 | > 10000 | Cn1cnc2c1CC[C@H]2NC(=O)c1cnn(Cc2ccc(N3CC4CC4C3)nc2C(F)(F)F)c1 (stereo partly drawn) [Example 134, 1-[(6-{3-Azabicyclo[3.1.0]hexan-3-yl}-2-(trifluoromethyl)pyridin-3-yl)methyl]-N-[(4R)-1-methyl-1H,4H,5H,6H-cyclopenta[d]imidazol-4-yl]-1H-pyrazole-4-carboxamide]
15 | 0.9 | 784 | > 10000 | CCCc1nc(N2CC3CC3C2)ccc1Cn1cnc(C(=O)N[C@@H]2CCc3c2ncn3C)c1 (stereo partly drawn) [Example 110, 1-[(6-{3-Azabicyclo[3.1.0]hexan-3-yl}-2-propylpyridin-3-yl)methyl]-N-[(4R)-1-methyl-1H,4H,5H,6H-cyclopenta[d]imidazol-4-yl]-1H-imidazole-4-carboxamide]
16 | 0.9 | 1320 | > 10000 | COCc1nn(Cc2ccc(N3CC4CC4C3)nc2C)cc1C(=O)N[C@@H]1CCc2c1ncn2C (stereo partly drawn) [Example 123, 1-[(6-{3-Azabicyclo[3.1.0]hexan-3-yl}-2-methylpyridin-3-yl)methyl]-3-(methoxymethyl)-N-[(4R)-1-methyl-1H,4H,5H,6H-cyclopenta-[d]imidazol-4-yl]-1H-pyrazole-4-carboxamide]
17 | 1 | 181 | > 10000 | Cc1nc(N2CC3C(C2)C3(F)F)ccc1Cn1cnc(C(=O)N[C@@H]2CCc3c2ncn3C)c1 (stereo partly drawn) [Example 24, 1-[(6-{6,6-Difluoro-3-azabicyclo[3.1.0]hexan-3-yl}-2-methylpyridin-3-yl)methyl]-N-[(4R)-1-methyl-1H,4H,5H,6H-cyclopenta[d]imidazol-4-yl]-1H-imidazole-4-carboxamide]
18 | 2.2 | 1540 | > 10000 | Cn1cnc2c1CC[C@H]2NC(=O)c1cnn(Cc2ccc(N3CC4CC4C3)nc2C2CC2)c1 (stereo partly drawn) [Example 117, 1-[(6-{3-Azabicyclo[3.1.0]hexan-3-yl}-2-cyclopropylpyridin-3-yl)methyl]-N-[(4R)-1-methyl-1H,4H,5H,6H-cyclopenta[d]imidazol-4-yl]-1H-pyrazole-4-carboxamide]
19 | 0.9 | 624 | > 10000 | Cc1nc(N2CC3CC3C2)ccc1Cn1cc(C(=O)N[C@@H]2CCc3c2ncn3C)c(CO)n1 (stereo partly drawn) [Example 217, 1-[(6-{3-Azabicyclo[3.1.0]hexan-3-yl}-2-methylpyridin-3-yl)methyl]-3-(hydroxymethyl)-N-[(4R)-1-methyl-1H,4H,5H,6H-cyclopenta[d]imidazol-4-yl]-1H-pyrazole-4-carboxamide]
